Experimental data as given in patent publication US10750729B2, “Pig for atrioventricular block model, monkey for atrioventricular block model, guinea pig for atrioventricular block model, and use thereof” (Toho University, priority 2012, dated 2020).

Tested on: Guinea pigs (Hartley)
Assay: Test Example 3-1: electrocardiogram and aortic pressure of halothane-anesthetized guinea pigs (FTY720)
Type: in vivo
Settings: guinea pig
Experimental: Guinea pigs (Hartley, body weight: 420 g to 650 g, male, obtained from Japan SLC, Inc.) were each anesthetized by intraperitoneally administering thereto sodium thiopental (product of Mitsubishi Tanabe Pharma Corporation) at 50 mg/kg. Next, a tracheal cannula was inserted into each of the guinea pigs. While their body temperature was being maintained at 37° C. with a warming pad, the guinea pigs were allowed to inhale 100% by volume oxygen and 1% by volume vaporized halothane (product of Takeda Pharmaceutical Company Limited.) using an artificial respirator for experimental animals (SN-480-7; product of shimano Co., Ltd.). Here, the artificial respirator for experimental animals was set to a tidal volume of 10 mL/kg and a respiration rate of 60 strokes/min. Next, a cannula for drug administration was inserted to their left femoral vein. In addition, a heparinized catheter for monitoring the blood pressure was inserted to the aorta through the left femoral […]. Then, ECG standard limb II leads was continuously recorded.
Each of the guinea pigs (n=12) of Example 3 was recorded for an electrocardiogram before administration of a drug or a solvent.
FTY720 (product of Sigma-Aldrich Inc.) was dissolved in physiological saline (product of Otsuka Pharmaceutical Factory, Inc.) so as to have a concentration of 0.03 mg/mL.
(§1) After the evaluation of base control, the cannula for drug administration was inserted, and the above-prepared FTY720 solution was intravenously administered to each of the guinea pigs (n=4) of Example 3 for 10 min at a dose of 0.01 mg/kg. These guinea pigs were evaluated for parameters by the following evaluation methods at 5 min, 10 min, 15 min, 20 min, 30 min, 45 min or 60 min after the administration of the FTY720 solution.
FTY720 (product of Sigma-Aldrich Inc.) was dissolved in physiological saline (product of Otsuka Pharmaceutical Factory, Inc.) so as to have a concentration of 0.3 mg/mL.
as §1, with “0.1” for “0.01”
The aortic pressure and the electrocardiogram were monitored using a polygraph system (RM-6000, product of NIHON KOHDEN Co. Ltd.) and analyzed with a full-automated analysis system in real time (WinVAS ver. 3, 1.1R03; product of Physio-Tech Co., Ltd.).
Parameters of the electrocardiogram were measured three times, and the obtained values were averaged. Atrial rate was calculated from PP interval of the electrocardiogram. Ventricular rate was calculated from RR interval of the electrocardiogram.
The measurements in FIGS. 4A to 4E are expressed as mean±SE (n=4). The difference between the parameters was evaluated with one-way repeated measures analysis of variance (ANOVA). It was considered that p<0.05 is statistically significant. In FIG. 4A to 4C and FIG. 4E, “white circle,” “white square” and “white triangle” each mean absence of a significant difference relative to the value of the evaluation of base control (C), and “black circle” and “black square” each mean presence of a significant difference relative to the value of the evaluation of base control (C).
Also, in FIG. 4D, “white circle” means absence of development of atrioventricular block or presence of development of first-degree atrioventricular block, “white square” means presence of development of second-degree atrioventricular block (Wenckebach type), “white triangle” means presence of development of advanced atrioventricular block, “x-mark” means presence of development of third-degree atrioventricular block (complete atrioventricular block), and #1 to 4 refer to each individual.

[1] = FTY720 0.01 and 0.1 mg/kg/10 min i.v., for 60 min from start
[2] = high-dose 0.1 mg/kg/10 min i.v., n=4

CCCCCCCCc1ccc(CCC(N)(CO)CO)cc1 [FTY720, Fingolimod]
change in atrial rate [1]: no significant change | change in blood pressure (MBP) [1]: no significant change | change in QRS width (high-dose 0.1 mg/kg/10 min i.v.): no significant change | correspondence of P wave and R wave in the electrocardiogram (high-dose 0.1 mg/kg/10 min i.v., 45 min after start): the atrium and the ventricle are contracted independently of each other at their own individual rhythms | change in PR interval (high-dose 0.1 mg/kg/10 min i.v., before development of atrioventricular block): prolonged | change in ventricular rate (high-dose 0.1 mg/kg/10 min i.v., from 20 min to 60 min): significant decrease | change in QT interval (high-dose 0.1 mg/kg/10 min i.v., from 45 min to 60 min): prolonged | individuals that developed Wenckebach-type atrioventricular block [2]: one individual | individuals that developed complete atrioventricular block [2]: three individuals out of the four individuals | change in any electrophysiological parameters (PR interval, QRS width, QT interval) (low-dose 0.01 mg/kg/10 min i.v., at 60 min from start): no significant change | change in ventricular rate (low-dose 0.01 mg/kg/10 min i.v., for 60 min from start): no significant change
